{"source": "BindingDB's records for doi:10.1111/cbdd.12796", "about": "(Fudan University, 2016)", "key": {"D(1A) dopamine receptor [1]": {"biological_target": "T1, D(1A) dopamine receptor (Homo sapiens, UniProt P21728)", "T1 sequence (P21728 whole entry)": "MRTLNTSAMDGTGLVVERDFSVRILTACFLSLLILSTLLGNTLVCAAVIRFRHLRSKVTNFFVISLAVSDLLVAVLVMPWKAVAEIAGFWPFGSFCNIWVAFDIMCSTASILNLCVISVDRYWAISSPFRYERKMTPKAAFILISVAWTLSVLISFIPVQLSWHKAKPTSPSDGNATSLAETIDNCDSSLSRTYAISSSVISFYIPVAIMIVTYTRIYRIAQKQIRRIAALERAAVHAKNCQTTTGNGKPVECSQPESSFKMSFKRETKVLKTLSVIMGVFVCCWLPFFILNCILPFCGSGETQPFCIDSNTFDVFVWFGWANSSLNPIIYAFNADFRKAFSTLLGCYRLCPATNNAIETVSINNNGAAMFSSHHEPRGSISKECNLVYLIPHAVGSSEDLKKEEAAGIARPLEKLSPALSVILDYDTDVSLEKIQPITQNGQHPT", "test": "Competitive Binding Assays"}, "D(2) dopamine receptor": {"biological_target": "D(2) dopamine receptor (Homo sapiens, UniProt P14416)", "sequence (P14416 whole entry)": "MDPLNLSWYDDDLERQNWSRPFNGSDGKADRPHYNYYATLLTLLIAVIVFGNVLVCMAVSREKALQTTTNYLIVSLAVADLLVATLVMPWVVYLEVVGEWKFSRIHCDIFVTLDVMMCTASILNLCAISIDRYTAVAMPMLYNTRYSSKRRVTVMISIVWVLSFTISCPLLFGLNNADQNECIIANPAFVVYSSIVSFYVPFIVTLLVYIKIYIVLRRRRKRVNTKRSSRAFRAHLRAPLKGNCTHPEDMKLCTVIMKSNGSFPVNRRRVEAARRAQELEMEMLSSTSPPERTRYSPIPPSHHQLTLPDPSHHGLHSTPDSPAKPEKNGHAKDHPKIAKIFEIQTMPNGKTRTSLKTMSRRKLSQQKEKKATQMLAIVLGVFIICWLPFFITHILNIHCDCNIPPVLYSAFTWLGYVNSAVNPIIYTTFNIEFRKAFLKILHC", "test": "Competitive Binding Assays"}, "D(3) dopamine receptor": {"biological_target": "D(3) dopamine receptor (Homo sapiens, UniProt P35462)", "sequence (P35462 as listed by the source)": "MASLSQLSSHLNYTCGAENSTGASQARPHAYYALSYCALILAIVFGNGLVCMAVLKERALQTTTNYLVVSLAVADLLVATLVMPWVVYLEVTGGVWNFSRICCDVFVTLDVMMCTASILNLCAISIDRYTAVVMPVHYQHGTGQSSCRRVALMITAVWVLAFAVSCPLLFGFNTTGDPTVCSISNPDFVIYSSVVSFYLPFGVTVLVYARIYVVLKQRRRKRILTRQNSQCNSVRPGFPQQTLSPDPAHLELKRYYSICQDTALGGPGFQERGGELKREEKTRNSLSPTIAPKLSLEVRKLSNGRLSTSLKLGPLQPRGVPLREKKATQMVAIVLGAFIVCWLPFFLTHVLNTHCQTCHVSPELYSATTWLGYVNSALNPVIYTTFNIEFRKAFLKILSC", "test": "Competitive Binding Assays"}, "D(1A) dopamine receptor [2]": {"biological_target": "T1, D(1A) dopamine receptor", "test": "D1R Functional Assay", "details": "pH 7.5"}}, "note": "“And” between values parts separate entries of the source, which are not always exact repeats. Equal values may be shown once.", "data": [{"smiles": "COc1cc2c(cc1OC)C1Cc3ccc(OC)c(OC)c3CCN1CC2", "note": "(stereo not drawn) [2,3,10,11-tetramethoxy-5,6,8,9,14,14a-hexahydrobenzo[4,5]azepino[2,1-a]isoquinoline (15c)]", "values": [{"measurement": "Ki", "setting": "D(1A) dopamine receptor [1]", "result": 0.0573, "unit": "µM"}, {"measurement": "Ki", "setting": "D(2) dopamine receptor", "result": 0.0298, "unit": "µM"}, {"measurement": "Ki", "setting": "D(3) dopamine receptor", "result": 0.022, "unit": "µM"}]}, {"smiles": "COc1cc2c(cc1OC)CC1c3cc(OC)c(OC)cc3CCN1CC2", "note": "(stereo not drawn) [2,3,11,12-tetramethoxy-5,6,8,9,14,14a-hexahydrobenzo[4,5]azepino[2,1-a]isoquinoline (15a)]", "values": [{"measurement": "Ki", "setting": "D(1A) dopamine receptor [1]", "result": 0.0339, "unit": "µM"}, {"measurement": "Ki", "setting": "D(2) dopamine receptor", "result": 0.0265, "unit": "µM"}, {"measurement": "Ki", "setting": "D(3) dopamine receptor", "result": 0.0133, "unit": "µM"}]}, {"smiles": "COc1cc2c(cc1O)C1Cc3ccc(OC)c(OC)c3CCN1CC2", "note": "(stereo not drawn) [3,10,11-trimethoxy-5,6,8,9,14,14a-hexahydrobenzo[4,5]azepino[2,1-a]isoquinolin-2-ol (15d)]", "values": [{"measurement": "Ki", "setting": "D(1A) dopamine receptor [1]", "result": 0.0303, "unit": "µM"}, {"measurement": "Ki", "setting": "D(2) dopamine receptor", "result": 0.084, "unit": "µM"}, {"measurement": "Ki", "setting": "D(3) dopamine receptor", "result": 0.284, "unit": "µM"}, {"measurement": "IC50", "setting": "D(1A) dopamine receptor [2]", "result": 33.5, "unit": "µM"}]}, {"smiles": "COc1cc2c(cc1OC(C)=O)C1Cc3ccc(OC)c(OC)c3CCN1CC2", "note": "(stereo not drawn) [3,10,11-trimethoxy-5,6,8,9,14,14a-hexahydrobenzo[4,5]azepino[2,1-a]isoquinolin-2-ylacetate (19)]", "values": [{"measurement": "Ki", "setting": "D(1A) dopamine receptor [1]", "result": 0.474, "unit": "µM"}, {"measurement": "Ki", "setting": "D(2) dopamine receptor", "result": 0.052, "unit": "µM"}, {"measurement": "Ki", "setting": "D(3) dopamine receptor", "result": 0.0737, "unit": "µM"}]}, {"smiles": "COc1cc2c(cc1O)C1Cc3cc(OC)c(OC)cc3CCN1CC2", "note": "(stereo not drawn) [3,11,12-trimethoxy-5,6,8,9,14,14a-hexahydrobenzo[4,5]azepino[2,1-a]isoquinolin-2-ol (15b)]", "values": [{"measurement": "Ki", "setting": "D(1A) dopamine receptor [1]", "result": 0.0691, "unit": "µM"}, {"measurement": "Ki", "setting": "D(2) dopamine receptor", "result": 0.00696, "unit": "µM"}, {"measurement": "Ki", "setting": "D(3) dopamine receptor", "result": 0.0392, "unit": "µM"}]}, {"smiles": "COc1cc2c(cc1O)C1Cc3ccc(OC)c(O)c3CCN1CC2", "note": "(stereo not drawn) [3,11-dimethoxy-5,6,8,9,14,14a-hexahydrobenzo[4,5]azepino[2,1-a]isoquinoline-2,10-diol ((+)-15e)]", "values": [{"measurement": "Ki", "setting": "D(2) dopamine receptor", "result": "0.0366 µM and 0.0344 µM and 0.0583 µM"}, {"measurement": "IC50", "setting": "D(1A) dopamine receptor [2]", "result": 0.14, "unit": "µM"}]}, {"smiles": "Oc1cc2c(cc1O)C1Cc3ccc(O)c(O)c3CCN1CC2", "note": "(stereo not drawn) [5,6,8,9,14,14a-hexahydrobenzo[4,5]azepino[2,1-a]isoquinoline-2,3,10,11-tetraol (18)]", "values": [{"measurement": "Ki", "setting": "D(1A) dopamine receptor [1]", "result": 0.0337, "unit": "µM"}, {"measurement": "Ki", "setting": "D(2) dopamine receptor", "result": 0.0722, "unit": "µM"}, {"measurement": "Ki", "setting": "D(3) dopamine receptor", "result": 0.471, "unit": "µM"}, {"measurement": "IC50", "setting": "D(1A) dopamine receptor [2]", "result": 115, "unit": "µM"}]}, {"smiles": "COc1ccc2c(c1OC)CCN1CCc3cc4c(cc3C1C2)OCO4", "note": "(stereo not drawn) [Hexahydrobenzo[4,5]azepino[2,1-a]isoquinoline, 16]", "values": [{"measurement": "Ki", "setting": "D(1A) dopamine receptor [1]", "result": 0.0603, "unit": "µM"}, {"measurement": "Ki", "setting": "D(2) dopamine receptor", "result": 0.00426, "unit": "µM"}, {"measurement": "Ki", "setting": "D(3) dopamine receptor", "result": 0.0273, "unit": "µM"}]}, {"smiles": "COc1ccc2c(c1OC)CCN1CCc3cc(O)c(O)cc3C1C2", "note": "(stereo not drawn) [Hexahydrobenzo[4,5]azepino[2,1-a]isoquinoline, 17]", "values": [{"measurement": "Ki", "setting": "D(1A) dopamine receptor [1]", "result": 0.22, "unit": "µM"}, {"measurement": "Ki", "setting": "D(2) dopamine receptor", "result": 0.0392, "unit": "µM"}, {"measurement": "Ki", "setting": "D(3) dopamine receptor", "result": 0.0612, "unit": "µM"}]}]}
